Measurements taken from publication PMC12402003 (Frontiers in Nutrition, 2025).

Key:
[1] = test system: Caco-2 cell monolayers; experiment: Bidirectional transport across Caco-2 cell monolayer; type: in vitro ADME, human; conditions: for efflux rate (BL to AP side) / absorption rate (AP to BL side): 50 μM; for efflux rate (BL to AP side): up to 150 min; for absorption rate (AP to BL side): within 150 min; for ER (efflux rate) / Papp (AP → BL) / Papp (BL → AP): 50 μmol/L, no inhibitor; for transport mechanism into the small intestine: inferred from ER < 1 and inhibitor study
Experimental: The cells were seeded at a density of approximately 10^5 cells/cm^2 on TranswellTM filter (Corning Inc., Lowell, MA) and cultured for 21 d before use. Cell monolayer integrity was controlled by the measurement of trans-epithelial electrical resistance (TEER) with an EVOM epithelial voltammeter equipped with an electrode (World Precision Instruments, Sarasota, FL, United States). […] (a) R(%)=CBL×VBL/CAP×VAP×100 In this, R represents the absorption rate (as a percentage); CBL is the anthocyanin concentration of the BL side (in μM); VBL is the volume of anthocyanins from the BL (in L); CAP is the initial anthocyanin concentration of the AP side (in μM), and VAP is the volume of anthocyanins in the AP chamber (in L). The absorption rate of anthocyanins from BL to AP is calculated using the following Equation b: (b) R(%)=CAP×VAP/CBL×VBL×100 In this, R represents the absorption rate (as a percentage); CAP is the anthocyanin concentration from the AP side (in μM); VAP is the volume of anthocyanins in the AP chamber (in mL); CBL is the initial concentration from the BL side (in μM) and VBL is the volume of anthocyanins in the BL chamber (in L).

[2] = test system: Caco-2/HepG2 co-culture model; experiment: Lipid metabolites and AST/ALT in OA-induced Caco-2/HepG2 co-culture model; type: cell-based, human; conditions: for reduction in TC content: HepG2 on BL side after transport by Caco-2, 50 μM
Experimental: Caco-2 and HepG2 cells were cultured separately at 37°C with 5% CO2 in DMEM medium containing 10% fetal bovine serum, 50 U/mL penicillin, and 50 μg/mL streptomycin. Caco-2 cells were cultured in 96-well plates for 24 h and harvested with trypsin–EDTA to seed to the AP side (1 × 10^5 cells/mL, 500 μL) in monolayers. 1,500 μL of Minimum Essential Medium (MEM) was simultaneously added to the BL compartment. HepG2 cells were seeded to the BL compartment at the day 15. The total culture period was 18 d.
The co-culture cells were collected by the previous method from the above mentioned, and the cells were lysed on ice for 30 min using IP cell lysis buffer (20 mM Tris pH 7.5, 200 mM NaCl, 10% glycerol, 0.2 mM DTT, 0.1 mM EDTA, 1 mM protease inhibitor). The contents of TG, T-CHO, LDL-C, HDL-C, AST, and ALT from HepG2 were measured following the test kit instructions. Intracellular protein content was measured to calibrate the levels of relevant metabolites using the BCA Protein Quantitation Kit (Beyotime Biotechnology).

[3] = test system: Fabp4; experiment: Western blot of Fabp4 protein in Caco-2/HepG2 co-culture; type: cell-based, human; conditions: OA-induced co-culture, 50 μM, 24 h; compared vs. OA
Experimental: (§1) Cells from the co-culture model were lysed and supernatants were collected. The protein concentrations were determined using the BCA Protein Quantitation Kit. Then electrophoresis of samples was conducted using a SDS-PAGE kit (Beyotime Biotechnology) following the manufacturer’s instructions and transferred to poly-vinylidene difluoride (PVDF) membrane. Next, membranes were incubated in 5% nonfat milk to block non-specific antibody binding for 30 min at room temperature and followed by incubating with primary antibodies and secondary antibodies. Chemiluminescence based-images of the blots were acquired using ImageQuant LAS 500 system (GE, United States). Protein bands were quantified using ImageJ (version 1.53a) software. The changes in expression levels of these proteins detected finally are used to evaluate the sample’s effect on lipid metabolism.

[4] = test system: Plin1; experiment: Western blot of Plin1 protein in Caco-2/HepG2 co-culture; type: cell-based, human; conditions: OA-induced co-culture, 50 μM, 24 h; compared vs. OA
Experimental: as §1

[5] = test system: Pparγ; experiment: Western blot of PPARγ protein in Caco-2/HepG2 co-culture; type: cell-based, human; conditions: OA-induced co-culture, 50 μM, 24 h; compared vs. OA
Experimental: as §1

[6] = biological target: MRP2 (Homo sapiens, UniProt Q92887); experiment: Bidirectional Caco-2 transport with probenecid (MRP inhibitor); conditions: for ER (efflux rate) / Papp (AP → BL) / Papp (BL → AP): 50 μmol/L, + Prob (probenecid 1 mM); for substrate of MRP2: bidirectional assay with probenecid 1 mM
Sequence of MRP2 (Q92887 whole entry): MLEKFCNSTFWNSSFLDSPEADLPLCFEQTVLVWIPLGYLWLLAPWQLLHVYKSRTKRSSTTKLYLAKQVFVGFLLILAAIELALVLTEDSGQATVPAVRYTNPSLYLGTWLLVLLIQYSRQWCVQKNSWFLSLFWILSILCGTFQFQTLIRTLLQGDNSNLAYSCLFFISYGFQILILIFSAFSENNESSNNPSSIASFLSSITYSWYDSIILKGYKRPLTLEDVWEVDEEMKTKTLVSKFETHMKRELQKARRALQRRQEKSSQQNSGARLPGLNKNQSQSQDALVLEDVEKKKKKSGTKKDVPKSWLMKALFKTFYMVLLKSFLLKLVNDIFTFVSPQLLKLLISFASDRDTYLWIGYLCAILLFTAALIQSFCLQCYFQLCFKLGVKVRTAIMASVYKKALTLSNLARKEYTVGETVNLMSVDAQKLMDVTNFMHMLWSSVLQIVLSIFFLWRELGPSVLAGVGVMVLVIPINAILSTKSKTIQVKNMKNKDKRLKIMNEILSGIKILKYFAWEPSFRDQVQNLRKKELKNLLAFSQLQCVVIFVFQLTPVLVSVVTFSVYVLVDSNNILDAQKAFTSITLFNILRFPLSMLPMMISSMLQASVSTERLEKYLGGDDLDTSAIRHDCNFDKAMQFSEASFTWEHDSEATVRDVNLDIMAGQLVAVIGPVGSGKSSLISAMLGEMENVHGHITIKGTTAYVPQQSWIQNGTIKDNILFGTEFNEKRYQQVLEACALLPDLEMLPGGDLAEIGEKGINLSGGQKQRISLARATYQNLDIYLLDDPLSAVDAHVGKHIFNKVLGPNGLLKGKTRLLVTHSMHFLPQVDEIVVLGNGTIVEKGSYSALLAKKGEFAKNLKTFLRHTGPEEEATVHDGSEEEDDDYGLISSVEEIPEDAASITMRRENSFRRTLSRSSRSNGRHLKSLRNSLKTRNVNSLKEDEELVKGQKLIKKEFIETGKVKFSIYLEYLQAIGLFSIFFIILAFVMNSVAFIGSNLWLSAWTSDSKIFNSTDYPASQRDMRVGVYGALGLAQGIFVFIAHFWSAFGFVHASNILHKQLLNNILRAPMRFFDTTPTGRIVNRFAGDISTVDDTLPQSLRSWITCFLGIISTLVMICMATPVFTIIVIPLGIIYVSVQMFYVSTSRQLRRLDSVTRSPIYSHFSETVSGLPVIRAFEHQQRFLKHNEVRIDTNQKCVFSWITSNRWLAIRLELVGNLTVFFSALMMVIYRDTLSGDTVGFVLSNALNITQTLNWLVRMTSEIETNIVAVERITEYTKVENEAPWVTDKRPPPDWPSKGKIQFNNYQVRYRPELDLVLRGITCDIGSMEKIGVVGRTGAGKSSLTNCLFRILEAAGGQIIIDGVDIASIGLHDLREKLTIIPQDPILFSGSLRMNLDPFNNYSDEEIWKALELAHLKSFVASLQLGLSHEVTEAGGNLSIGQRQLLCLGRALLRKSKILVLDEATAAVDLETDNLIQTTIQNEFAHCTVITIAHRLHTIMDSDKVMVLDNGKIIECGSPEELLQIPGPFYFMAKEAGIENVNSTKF
Experimental: Transport assay: The monolayers were pre-incubated at 37°C for 30–40 min with 5% CO2 in a pre-warmed media, which contained Hanks Balanced Salt solution (HBSS, BioWhittaker), HEPES buffer and D-glucose. For the transport of apical (AP) side to basolateral (BL) side, the media was removed after pre-incubation and 0.5 mL of polyphenols was added to the AP side. 1.5 mL of HBSS were added to the BL side. Then 200 μL of samples were taken from the BL side at 30, 60, 90, 120 and 150 min, respectively. The BA sample volumes removed were therewith replenished with same volumes of the HBSS solution. For the transport of BL to AP, polyphenols were added to BL and samples were taken from AP at a series of time points as above mentioned. The TEER was measured from the beginning to the end of the assay.
Caco-2 cells (1×10^5 cells/well) were cultured in 96-well plates for 24 h until differentiation, with a TEER value exceeding 400 Ω·cm^2. Bidirectional transport experiments from AP to BL or from BL to AP were performed as mentioned in the transport assay. The apparent permeability coefficients, cumulative release and initial concentrations and efflux rates were determined. In brief, the total transport time was set to 150 min. For AP to BL transport, 0.5 mL of polyphenols were added to AP with 1.5 mL of HBSS to the BL side. 200 μL of samples were collected from BL at different time points (30, 60, 90, 120, and 150 min). For BL to AP transport, polyphenols were added to BL and samples were collected from AP as the mentioned above.

[7] = test system: HepG2 cells; experiment: Oil Red O lipid content in OA-induced high-fat HepG2 cells; conditions: 1 mM OA-induced HepG2 cells, 50 μM, 24 h
Experimental: For the lipid content assay: The cells were treated with 1 mM oleic acid (OA). […] The absorbance value was recorded at 530 nm using a microplate absorbance reader. Isopropanol solvent was used as a control ([14]).

OC[C@H]1O[C@@H](Oc2cc3c(O)cc(O)cc3[o+]c2-c2ccc(O)c(O)c2)[C@H](O)[C@@H](O)[C@@H]1O [C3G, Cyanidin-3-O-glucoside]
efflux rate (BL to AP side) [1]: 15.41%
absorption rate (AP to BL side) [1]: 22.47%
ER (efflux rate) ([1]; 30 min): 0.49
Papp (AP → BL) ([1]; 30 min): 3.9 ± 1.32^Aa* ×10^−5 cm /s
Papp (BL → AP) ([1]; 30 min): 1.8 ± 0.14^Ba ×10^−5 cm /s
ER (efflux rate) ([1]; 60 min): 0.56
Papp (AP → BL) ([1]; 60 min): 1.8 ± 0.07^Cb* ×10^−5 cm /s
Papp (BL → AP) ([1]; 60 min): 1.0 ± 0.17^Bb ×10^−5 cm /s
ER (efflux rate) ([1]; 90 min): 0.53
Papp (AP → BL) ([1]; 90 min): 1.1 ± 0.02^Cb* ×10^−5 cm /s
Papp (BL → AP) ([1]; 90 min): 0.6 ± 0.04^Cc ×10^−5 cm /s
ER (efflux rate) ([1]; 120 min): 0.57
Papp (AP → BL) ([1]; 120 min): 0.9 ± 0.03^Cb* ×10^−5 cm /s
Papp (BL → AP) ([1]; 120 min): 0.5 ± 0.08^Ccd ×10^−5 cm /s
ER (efflux rate) ([1]; 150 min): 0.54
Papp (AP → BL) ([1]; 150 min): 0.7 ± 0.03^Bb* ×10^−5 cm /s
Papp (BL → AP) ([1]; 150 min): 0.4 ± 0.04^Cde ×10^−5 cm /s
transport mechanism into the small intestine [1]: passive diffusion
reduction of ALT level [2]: not observed
reduction of AST level [2]: not observed
reduction of OA-induced LDL-C increase ([2]; 50 μM): did not change
reduction in TC content [2]: 7.69%
Fabp4 protein expression level (densitometry) [3]: 1.23
Plin1 protein expression level (densitometry) [4]: 1.12
PPARγ protein expression level (densitometry) [5]: 1.03
ER (efflux rate) ([6]; 30 min): 0.63
Papp (AP → BL) ([6]; 30 min): 8.47 ± 0.39 ×10^−5 cm /s
Papp (BL → AP) ([6]; 30 min): 5.31 ± 0.72 ×10^−5 cm /s
ER (efflux rate) ([6]; 60 min): 0.61
Papp (AP → BL) ([6]; 60 min): 4.55 ± 0.09 ×10^−5 cm /s
Papp (BL → AP) ([6]; 60 min): 2.79 ± 0.37 ×10^−5 cm /s
ER (efflux rate) ([6]; 90 min): 0.52
Papp (AP → BL) ([6]; 90 min): 3.12 ± 0.02 ×10^−5 cm /s
Papp (BL → AP) ([6]; 90 min): 1.62 ± 0.08 ×10^−5 cm /s
ER (efflux rate) ([6]; 120 min): 0.53
Papp (AP → BL) ([6]; 120 min): 2.45 ± 0.03 ×10^−5 cm /s
Papp (BL → AP) ([6]; 120 min): 1.29 ± 0.09 ×10^−5 cm /s
ER (efflux rate) ([6]; 150 min): 0.56
Papp (AP → BL) ([6]; 150 min): 1.83 ± 0.09 ×10^−5 cm /s
Papp (BL → AP) ([6]; 150 min): 1.06 ± 0.04 ×10^−5 cm /s
substrate of MRP2 [6]: not substrates
decrease of lipid absorption rate (Oil Red O lipid droplets) [7]: 22.35%

O.Oc1cc(O)c2c(c1)O[C@H](c1ccc(O)c(O)c1)[C@@H](O)C2 [catechin]
efflux rate (BL to AP side) [1]: 68.71%
absorption rate (AP to BL side) [1]: 73.41%
ER (efflux rate) ([1]; 30 min): 0.77
Papp (AP → BL) ([1]; 30 min): 7.9 ± 0.26^Ba ×10^−5 cm /s
Papp (BL → AP) ([1]; 30 min): 6.1 ± 2.78^Aa ×10^−5 cm /s
ER (efflux rate) ([1]; 60 min): 0.55
Papp (AP → BL) ([1]; 60 min): 4.6 ± 0.43^Ab* ×10^−5 cm /s
Papp (BL → AP) ([1]; 60 min): 2.5 ± 0.28^Ab ×10^−5 cm /s
ER (efflux rate) ([1]; 90 min): 0.52
Papp (BL → AP) ([1]; 90 min): 1.6 ± 0.11^Ab ×10^−5 cm /s
ER (efflux rate) ([1]; 120 min): 0.51
Papp (AP → BL) ([1]; 120 min): 2.5 ± 0.19^Ad* ×10^−5 cm /s
Papp (BL → AP) ([1]; 120 min): 1.31 ± 0.13^Ab ×10^−5 cm /s
ER (efflux rate) ([1]; 150 min): 0.48
Papp (AP → BL) ([1]; 150 min): 2.2 ± 0.52^Ad* ×10^−5 cm /s
Papp (BL → AP) ([1]; 150 min): 1.0 ± 0.03^Ab ×10^−5 cm /s
transport mechanism into the small intestine [1]: passive diffusion
reduction of ALT level [2]: not observed
reduction of AST level [2]: not observed
reduction in TC content [2]: 7.69%
Fabp4 protein expression level (densitometry) [3]: 1.23
Plin1 protein expression level (densitometry) [4]: 1.14
PPARγ protein expression level (densitometry) [5]: 1.08
ER (efflux rate) ([6]; 30 min): 0.58
Papp (AP → BL) ([6]; 30 min): 9.19 ± 0.53 ×10^−5 cm /s
Papp (BL → AP) ([6]; 30 min): 5.36 ± 0.52 ×10^−5 cm /s
ER (efflux rate) ([6]; 60 min): 0.56
Papp (AP → BL) ([6]; 60 min): 4.46 ± 0.36 ×10^−5 cm /s
Papp (BL → AP) ([6]; 60 min): 2.50 ± 0.27 ×10^−5 cm /s
ER (efflux rate) ([6]; 90 min): 0.52
Papp (BL → AP) ([6]; 90 min): 1.64 ± 0.37 ×10^−5 cm /s
ER (efflux rate) ([6]; 120 min): 0.51
Papp (AP → BL) ([6]; 120 min): 2.48 ± 0.19 ×10^−5 cm /s
Papp (BL → AP) ([6]; 120 min): 1.27 ± 0.27 ×10^−5 cm /s
ER (efflux rate) ([6]; 150 min): 0.48
Papp (AP → BL) ([6]; 150 min): 1.93 ± 0.49 ×10^−5 cm /s
Papp (BL → AP) ([6]; 150 min): 0.98 ± 0.34 ×10^−5 cm /s
substrate of MRP2 [6]: not substrates
decrease of lipid absorption rate (Oil Red O lipid droplets) [7]: 31.24%
